The record followed here is PubChem BioAssay (NCI).

Holding throughout (experiment): NCI-60 cell line screen, 48 h
Assay [1] relates to BT-549 breast.
Assay [2] has as its system MDA-MB-435.
For assay [3], the system named is T-47D breast.
The test system of assay [4] is NCI/ADR-RES ovarian.
Assay [5] deals with MCF7 breast.
Assay [6] relates to MDA-MB-231 breast.

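The compound was tested at five concentrations on cells cultured in 96-well plates, with a 48-hour exposure period. GI50 = concentration required for 50% inhibition of growth. TGI is the concentration that stops growth completely.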

For the molecule `CCOC(=O)[C@@H](C)C[C@H](Cc1ccccc1)NC(=O)c1csc([C@@H](C[C@H](C(C)C)N(C)C(=O)[C@@H](NC(=O)[C@H]2C[C@H](O[Si](C)(C)C(C)(C)C)CCN2C)C(C)C)OC(C)=O)n1`, the GI50 is 285 nM in assay [1]; 38.9 nM in assay [2]; 297 nM in assay [3]; 1290 nM in assay [4]; 132 nM in assay [5]; 0.329 µM in assay [6]. The TGI in assay [1] was 2.53 µM; in assay [2], 0.165 µM; in assay [3] it was > 8.33 µM; in assay [4], 5.03 µM; in assay [5], > 8.33 µM; in assay [6], 1.89 µM.
`O=[N+]([O-])c1ccc2[nH]cc(-c3c4ccsc4cc4[nH]c5ccc([N+](=O)[O-])cc5c34)c2c1`: the GI50 was 1490 nM in assay [1]; 145 nM in assay [2]; 864 nM in assay [3]; 744 nM in assay [4]; 606 nM in assay [5]; 1.2 µM in assay [6]. Besides, the TGI in assay [1] is 6.36 µM; in assay [2], 33.3 µM; in assay [3] it was 4.46 µM; in assay [4] it was 8.22 µM; in assay [5], 4.75 µM; in assay [6], 5.75 µM.
For the molecule `C=CC(=O)N1CCCC(n2nc(-c3ccc(Oc4ccccc4)cc3)c3c(N)ncnc32)C1` (configuration not stated), the GI50 was 5850 nM in assay [1]; 7850 nM in assay [2]; 2140 nM in assay [3]; 4270 nM in assay [4]; 7880 nM in assay [5]; 8.42 µM in assay [6]. Moreover, the TGI in assay [1] came out at 18.5 µM; in assay [2] it was 22.5 µM; in assay [3], 18.6 µM; in assay [4], 34.8 µM; in assay [5] it was 23.9 µM; in assay [6] it was 23.6 µM.
Turning to `c1ccc2c(c1)[I+]c1ccccc1-2`, the GI50 is > 50000 nM in assay [1]; > 50000 nM in assay [2]; > 50000 nM in assay [3]; > 50000 nM in assay [4]; > 50000 nM in assay [5]; 47.6 µM in assay [6]. The TGI in assay [1], in assay [2], in assay [3], in assay [4], in assay [5] and in assay [6] was > 50 µM throughout.
With `O=C1c2cc(Br)ccc2-c2c1c1ccc([N+](=O)[O-])cc1c(=O)n2CCCCl`, the GI50 in assay [1] is 2980 nM; in assay [2], 489 nM; in assay [3], 14.4 nM; in assay [4], 239 nM; in assay [5], < 10 nM; in assay [6], 12.9 µM. Also, the TGI in assay [1] is > 63.8 µM; in assay [2], 6.12 µM; in assay [3] it was 18.8 µM; in assay [4] it was 7.9 µM; in assay [5], > 44 µM; in assay [6], > 96.1 µM.
With `COc1ccc2c(c1)C(=O)CC(N)C2` (configuration not stated), the TGI in assay [1], in assay [2], in assay [3], in assay [4], in assay [5] and in assay [6] was > 100 µM in each case.
In the case of `CC1=CSC2=NC(c3ccc(Cl)c(Cl)c3)=CC(c3ccc(Cl)cc3)N12` (configuration not stated), the GI50 was > 100000 nM in assay [1]; > 100000 nM in assay [2]; > 100000 nM in assay [3]; > 100000 nM in assay [4]; > 100000 nM in assay [5]; > 100 µM in assay [6]. Moreover, the TGI in assay [1], in assay [2], in assay [3], in assay [4], in assay [5] and in assay [6] was > 100 µM each time.
On to `Oc1ccc(N=Nc2ccc(Cl)cc2)cc1`, for which the TGI was determined as 32.6 µM in assay [1]; 29 µM in assay [2]; 67.4 µM in assay [3]; 51.3 µM in assay [4]; 35.9 µM in assay [5]; 24.3 µM in assay [6].
As to `CCCCCCNC(=O)C1=C(C)NC(C)=C(C(=O)NCCCCCC)C1`, the TGI in assay [1], in assay [2], in assay [3], in assay [4], in assay [5] and in assay [6] was > 100 µM throughout.
Turning to `CCCCCCC/C=C/[C@H]1O[C@]23C(=O)C[C@@]4(C[C@@H](OC5OC(CO)C(O)C(O)C5O)C[C@@H]4[C@H]2C=C1C)OC3=O` (some centres not stated), the GI50 was 2060 nM in assay [1]; 2020 nM in assay [2]; 911 nM in assay [3]; 6990 nM in assay [4]; 1360 nM in assay [5]; 6.47 µM in assay [6]. Moreover, the TGI in assay [1] is 12.9 µM; in assay [2] it was 7.68 µM; in assay [3] it was 9.69 µM; in assay [4], > 33.3 µM; in assay [5], 26.9 µM; in assay [6], 16.5 µM.
